Laboratory results reported in patent US10336784B2, “Methods for modular synthesis of N-glycans and arrays thereof” (Academia Sinica, priority 2016, dated 2019).
“Also recorded” adds a separate entry of the source.

Legend:
PGTs 141-144 = test: Glycan array on ACG slide, binding of PGTs 141-144; design: species or system human; conditions: panel of glycans I-XI
Procedure: To understand the exact glycan epitopes recognized by antibodies PGTs 141-145^20, a panel of glycans I-XI on the ACG slide was prepared for analysis.
b) Fabrication of aluminum oxide coated glass slide. The aluminum oxide glass substrate provides advantages for being able to be assessed by both mass spectrometry and fluorescence scanning. […] There are many reports describing the surface of micron to nano pore structures of anodized aluminum oxide. However, only a few articles have mentioned the initial planar layer of aluminum oxide16 during the treatment of surface anodization. In the development of AAO glass substrate, a computer experimental design program (Design Expert 8.0) has been used to optimize the planar layer of surface anodized aluminum oxide to be best used in glycan microarray 17.
Antibodies PG9, PG16 and PGTs 141-145 were diluted by binding buffer to 100 μg/mL prior to use. DyLight649-conjugated Donkey Anti-Human IgG antibody was then pre-complexed with primary antibodies. The final concentration of the precomplexed solution was adjusted to 50 μg/mL with binding buffer. […]
(§1) The slide was scanned at 635 nm with a microarray fluorescence chip reader (GenePix® 4300A, Molecular Devices Corporation). Scanned images were analyzed with GenePix Pro 6.0 analysis software (Molecular Devices Corporation,). […] The intensities was calculated and averaged. […]

PG16 [1] = test: Glycan microarray on NHS-coated glass slide, binding of PG16; design: species or system human; conditions: NHS-activated glass slide, glycans printed at 100 μM
Procedure: To gain insights into the glycan specificities of these antibodies, the inventors used our newly developed array to profile the ligands of HIV-1 bNAbs. The synthetic N-glycan ligands were printed on NHS-activated glass slides through amide bond formation with 100 μM each of glycans 1-33 (FIG. 198). Each sample was printed with five replicates and slide images were obtained from a fluorescence scan after incubation with DyLight649-conjugated donkey anti-Human IgG antibody. […] Furthermore, PG9 and PGTs 141-145 were not detected to bind any of the glycans on the NHS array, probably due to their extremely weak binding. (FIGS. 203, 204A, 204B, 204C, 205A, 205B and 206).
a) Fabrication of N-hydroxy succinimide-coated glass slide: All monovalent glycans (G1-33) were prepared in 10 mM concentration individually and served as mother solutions which are to be diluted with printing buffer to prepare a working solution. […]
as §1

PG16 [2] = test: Glycan array on aluminium oxide-coated glass (ACG) slide, homo- and mixed glycans, binding of PG16; conditions: 100 μM glycan or mixtures of IV and XI
From the text: (§2) To further understand why glycan binding to these bNAbs was not readily observed on the NHS-coated glass slides, the inventors conducted a specificity test with the ACG array. […] Therefore, the inventors can simply adjust the concentration of glycan to control the density and distance of glycans on the ACG surface. To prepare a representative ACG array, glycans I-XI (FIG. 5a) were linked to a phosphonic acid tail for spontaneous covalent immobilization on the ACG slide (Supplementary Scheme S21, as shown in FIG. 129). After incubation with a secondary antibody, the inventors determined the dissociation constant (KD.surf.)^59 of the glycans interacting with the antibody of interest. Using the ACG slide, the signal intensity was enhanced, as shown by the use of PG16 at 1 μg/mL on the ACG slide in comparison to 25 μg/mL used on the NHS-coated glass slide (FIG. 5b and Supplementary FIG. 199). […]
(§3) b) Fabrication of aluminum oxide coated glass slide. The aluminum oxide glass substrate provides advantages for being able to be assessed by both mass spectrometry and fluorescence scanning. […]
as §1

PG16 [3] = test: Determination of surface dissociation constants (KD,surf) on ACG slide; format: binding, human
From the text: as §2, with “interest.” for “interest. Using the ACG slide, the signal intensity was enhanced, as shown by the use of PG16 at 1 μg/mL on the ACG slide in comparison to 25 μg/mL used on the NHS-coated glass slide (FIG. 5b and Supplementary FIG. 199).”
as §3
The aluminum oxide coated glass slides for the determination of dissociation constants were spotted with 100 and 50 μM concentrations of glycans Man5GlcNAc2 (V), hybrid type (XI), bi-antennary complex type (XII), V+XI (1:1 mole ratio), V+XII, and XI+XII. […] Finally, slides were washed with PBST, spin dried and scanned at 450 nm with a microarray fluorescence chip reader. Scanned images were analyzed with GenePix Pro 6.0 analysis software. […]

PG9 = test: Glycan array on aluminium oxide-coated glass (ACG) slide, homo- and mixed glycans, binding of PG9; conditions: homogeneous array of glycans I-XI
From the text: To evaluate whether the ACG array format could enhance the detection sensitivity, the inventors performed a ligand specificity profiling at various concentrations of PG9. […] Previously, it was shown that PG9 required Man5GlcNAc2 at primary (Asn160) and secondary (Asn156 or Asn173) binding sites together with a short peptide strand in gp120 recognition^26, whereas the composition of glycan at Asn156 or Asn173 was defined as a complex-type glycan in later studies^30,31. In the present study, the strong PG9 interaction with the hybrid-type structure compared to both Man5GlcNAc2 and complex-type glycans indicated the presence of a hybrid-type glycan or an oligomannose and a complex-type glycan in close proximity as ligand(s).
To evaluate the glycan combination at Asn160 and Asn156/Asn173 of gp120 that best fits into the PG9 binding pocket, the inventors printed two different mixed-glycan arrays. […]
as §3, §1

CC(=O)N[C@H]1[C@H](O[C@H]2[C@H](O)[C@@H](NC(C)=O)C(O)O[C@@H]2CO)O[C@H](CO)[C@@H](O[C@@H]2O[C@H](CO[C@H]3O[C@H](CO[C@H]4O[C@H](CO)[C@@H](O)[C@H](O)[C@@H]4O[C@H]4O[C@H](CO)[C@@H](O)[C@H](O)[C@@H]4O)[C@@H](O)[C@H](O[C@H]4O[C@H](CO)[C@@H](O)[C@H](O)[C@@H]4O[C@H]4O[C@H](CO)[C@@H](O)[C@H](O)[C@@H]4O)[C@@H]3O)[C@@H](O)[C@H](O[C@H]3O[C@H](CO)[C@@H](O)[C@H](O)[C@@H]3O[C@H]3O[C@H](CO)[C@@H](O)[C@H](O)[C@@H]3O[C@H]3O[C@H](CO)[C@@H](O)[C@H](O)[C@@H]3O)[C@@H]2O)[C@@H]1O (stereo partly shown) [Man9GlcNAc2]
binding of PGTs 141-144 (PGTs 141-144): significant decrease in the affinity

Man5GlcNAc2
binding of PG16 (PG16 [1]): could not observe binding | binding of PG16 (PG16 [2]): unable to detect PG16 binding | signal intensities for binding of PG16 (PG16 [3]; glycans spotted at 100 and 50 μM): too weak to determine the KD

5-Aminopentyl-di-[5-Acetamido-3,5-dideoxy-D-glycero-α-D-galacto-2-nonulopyrano-sylonate-(2→6)-β-D-galactopyranosyl-(1→4)-2-acetamido-2-deoxy-β-D-glucopyranosyl-(1→2)-α-D-mannopyranosyl]-(1→3),(1→6)-β-D-mannopyranosyl-(1→4)-2-acetamido-2-deoxy-β-D-glucopyranosyl-(1→4)-(α-L-fucopyranosyl-(1→6)-2-acetamido-2-deoxy-β-D-glucopyranoside [glycan 19]
binding of PG16 (PG16 [1]): not affected by the presence of the core fucose

CC(=O)NC1C(O)[C@H](O[C@@H]2OC(CO[C@]3(C(=O)O)CC(O)[C@@H](NC(C)=O)C([C@H](O)[C@H](O)CO)O3)[C@H](O)C(O)C2O)C(CO)O[C@H]1OC1C(O)[C@H](O)C(CO)O[C@@H]1OC1C(O)[C@H](O[C@@H]2C(CO)O[C@@H](O[C@@H]3C(CO)O[C@@H](OCCNC(=O)OCCOCCOCCP(=O)(O)O)C(NC(C)=O)C3O)C(NC(C)=O)C2O)OC(CO[C@H]2OC(CO[C@H]3OC(CO)[C@@H](O)C(O)C3O)[C@@H](O)C(O[C@H]3OC(CO)[C@@H](O)C(O)C3O)C2O)[C@H]1O (stereo partly shown) [X]
binding of PG9 to single glycans (PG9): apparent specificity; also recorded: significant enhancement in binding | Kd (PG16 [3]; read-out: KD (binding affinity of PG16)): 935 nM
